Source: ChEMBL document CHEMBL1649540, “The novel CXCR4 antagonist KRH-3955 is an orally bioavailable and extremely potent inhibitor of human immunodeficiency virus type 1 infection: comparative studies with AMD3100” (Antimicrob Agents Chemother, 2009)
Activity calls are given as the source filed them. The calls are words filed in the database; no cut-off is given here.

What was measured:
[1] = molecular target: T1, C-X-C chemokine receptor type 4 (Homo sapiens, UniProt P61073); assay: Inhibition of Mab A145 binding to CXCR4 expressed in human MOLT4 cells at 0.1 to 1000 nM by FACS analysis; format: cell-based; conditions: MOLT-4
[2] = test system: Human immunodeficiency virus 1; assay: Antiviral activity against HIV1 NL4-3 infected in human PBMC assessed as inhibition of viral p24 antigen production after 7 to 10 days by ELISA; format: functional, organism-based; conditions: Human immunodeficiency virus 1, NL4-3
[3] = test system: Human immunodeficiency virus 1; assay: Antiviral activity against HIV1 89.6 infected in human PBMC assessed as inhibition of viral p24 antigen production after 7 to 10 days by ELISA; format: functional, organism-based; conditions: Human immunodeficiency virus 1, 89.6
[4] = test system: Human immunodeficiency virus 1; assay: Antiviral activity against HIV1 JRCSF infected in human PBMC assessed as inhibition of viral p24 antigen production after 7 to 10 days by ELISA; format: functional; conditions: Human immunodeficiency virus 1, JRCSF ISOLATE
[5] = test system: Human immunodeficiency virus 1; assay: Antiviral activity against HIV1 R5 infected in human PBMC assessed as inhibition of viral p24 antigen production after 7 to 10 days by ELISA; format: functional, organism-based; conditions: Human immunodeficiency virus 1, R5
[6] = test system: Human immunodeficiency virus 1; assay: Antiviral activity against HIV1 A018H infected in human PBMC assessed as inhibition of viral p24 antigen production after 7 to 10 days by ELISA; format: functional, organism-based; conditions: Human immunodeficiency virus 1, A018H
[7] = test system: Human immunodeficiency virus 1; assay: Antiviral activity against NRTI-resistant HIV1 HXB2 infected in HEK293 cells assessed as inhibition of viral replication after 2 days; format: functional, organism-based; conditions: Human immunodeficiency virus 1, HXB2, HEK293, 48 h
[8] = test system: Human immunodeficiency virus 1; assay: Antiviral activity against NNRTI-resistant HIV1 HXB2 infected in HEK293 cells assessed as inhibition of viral replication after 2 days; format: functional, organism-based; conditions: Human immunodeficiency virus 1, HXB2, HEK293, 48 h
[9] = molecular target: T1, C-X-C chemokine receptor type 4; assay: Displacement of [125I]SDF-1alpha form CXCR4 expressed in CHO cells by scintillation counting; format: cell-based
[10] = test system: Human immunodeficiency virus 1; assay: Antiviral activity against T20-resistant HIV1 NL4-3 infected in HEK293 cells assessed as inhibition of viral replication after 2 days; format: functional, organism-based; conditions: Human immunodeficiency virus 1, NL4-3, HEK293, 48 h
[11] = molecular target: C-C chemokine receptor type 4 (Homo sapiens) (UniProt P51679); assay: Displacement of [125I]TARC form CCR4 expressed in CHO cells by scintillation counting; format: cell-based
[12] = molecular target: T1, C-X-C chemokine receptor type 4; assay: Inhibition of Mab 12G5 binding to CXCR4 expressed in human MOLT4 cells by FACS analysis; format: cell-based; conditions: MOLT-4
[13] = molecular target: T1, C-X-C chemokine receptor type 4; assay: Inhibition of Mab 44717 binding to CXCR4 expressed in human MOLT4 cells by FACS analysis; format: cell-based; conditions: MOLT-4
[14] = molecular target: T1, C-X-C chemokine receptor type 4; assay: Inhibition of Mab A80 binding to CXCR4 expressed in human MOLT4 cells by FACS analysis; format: cell-based; conditions: MOLT-4
[15] = AUC (0 to 336 hrs) in Sprague-Dawley rat at 10 mg/kg, po administered as single dose; format: ADME, organism-based; design: time < 336 hr, dose 10 mg/kg, route oral; conditions: plasma
[16] = molecular target: T1, C-X-C chemokine receptor type 4; assay: Inhibition of Mab 12G5 binding to wild type CXCR4 expressed in HEK293 cells; format: cell-based
[17] = test system: C-X-C chemokine receptor type 4 (Homo sapiens), P61073 [V99A]; assay: (§1) Inhibition of Mab 12G5 binding to CXCR4 V99A mutant expressed in HEK293 cells; format: cell-based
[18] = molecular target: C-X-C chemokine receptor type 4 (Homo sapiens, UniProt P61073, V99A); assay: as §1; format: cell-based
[19] = test system: C-X-C chemokine receptor type 4 (Homo sapiens), P61073 [V112A]; assay: (§2) Inhibition of Mab 12G5 binding to CXCR4 V112A mutant expressed in HEK293 cells; format: cell-based
[20] = molecular target: C-X-C chemokine receptor type 4 (Homo sapiens, UniProt P61073, V112A); assay: as §2; format: cell-based
[21] = test system: C-X-C chemokine receptor type 4 (Homo sapiens), P61073 [D181A]; assay: (§3) Inhibition of Mab 12G5 binding to CXCR4 D181A mutant expressed in HEK293 cells; format: cell-based
[22] = molecular target: C-X-C chemokine receptor type 4 (Homo sapiens, UniProt P61073, D181A); assay: as §3; format: cell-based
[23] = molecular target: C-X-C chemokine receptor type 4 (Homo sapiens, UniProt P61073, D171A)
[24] = molecular target: C-X-C chemokine receptor type 4 (Homo sapiens, UniProt P61073, E288A/L290A)
[25] = Tmax in Sprague-Dawley rat at 10 mg/kg, po administered as single dose; conditions: in vivo
[26] = test system: C-X-C chemokine receptor type 4 (Homo sapiens), P61073 [D262A]; conditions: HEK293
[27] = test system: C-X-C chemokine receptor type 4 (Homo sapiens), P61073 [E277A]; conditions: HEK293
C-X-C chemokine receptor type 4 (Homo sapiens), P61073 [E277A], sequence (P61073 whole entry E277A): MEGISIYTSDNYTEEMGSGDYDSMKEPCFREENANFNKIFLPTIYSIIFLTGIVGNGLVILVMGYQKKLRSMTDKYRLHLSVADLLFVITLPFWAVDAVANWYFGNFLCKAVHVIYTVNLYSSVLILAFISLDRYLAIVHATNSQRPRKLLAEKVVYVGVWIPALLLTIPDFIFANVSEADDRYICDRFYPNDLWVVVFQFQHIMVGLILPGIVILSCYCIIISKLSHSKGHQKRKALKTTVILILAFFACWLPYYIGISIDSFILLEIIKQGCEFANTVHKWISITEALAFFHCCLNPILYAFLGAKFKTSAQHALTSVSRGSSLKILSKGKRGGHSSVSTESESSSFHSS

T1 sequence (P61073 whole entry): as the sequence (P61073 whole entry E277A) above, with A277E counted along it
C-C chemokine receptor type 4 (Homo sapiens), sequence (P51679 whole entry): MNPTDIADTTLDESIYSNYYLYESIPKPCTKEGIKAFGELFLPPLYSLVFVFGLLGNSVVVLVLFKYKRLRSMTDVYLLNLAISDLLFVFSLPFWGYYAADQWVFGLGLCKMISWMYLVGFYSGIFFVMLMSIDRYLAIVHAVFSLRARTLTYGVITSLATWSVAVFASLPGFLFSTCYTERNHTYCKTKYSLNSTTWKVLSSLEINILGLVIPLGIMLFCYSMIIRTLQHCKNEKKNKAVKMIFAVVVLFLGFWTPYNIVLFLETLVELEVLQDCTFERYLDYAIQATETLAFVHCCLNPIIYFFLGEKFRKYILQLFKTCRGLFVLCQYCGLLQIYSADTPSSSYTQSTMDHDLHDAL
C-X-C chemokine receptor type 4 (Homo sapiens), P61073 [V99A], sequence (P61073 whole entry V99A): as the sequence (P61073 whole entry E277A) above, with V99A, A277E counted along it
C-X-C chemokine receptor type 4 (Homo sapiens, UniProt P61073, V99A), sequence (P61073 whole entry V99A): as the sequence (P61073 whole entry E277A) above, with V99A, A277E counted along it
C-X-C chemokine receptor type 4 (Homo sapiens, UniProt P61073, E288A/L290A), sequence (P61073 whole entry E288A/L290A): as the sequence (P61073 whole entry E277A) above, with A277E, E288A, L290A counted along it
C-X-C chemokine receptor type 4 (Homo sapiens, UniProt P61073, D181A), sequence (P61073 whole entry D181A): as the sequence (P61073 whole entry E277A) above, with D181A, A277E counted along it
C-X-C chemokine receptor type 4 (Homo sapiens), P61073 [D181A], sequence (P61073 whole entry D181A): as the sequence (P61073 whole entry E277A) above, with D181A, A277E counted along it
C-X-C chemokine receptor type 4 (Homo sapiens), P61073 [D262A], sequence (P61073 whole entry D262A): as the sequence (P61073 whole entry E277A) above, with D262A, A277E counted along it
C-X-C chemokine receptor type 4 (Homo sapiens, UniProt P61073, D171A), sequence (P61073 whole entry D171A): as the sequence (P61073 whole entry E277A) above, with D171A, A277E counted along it
C-X-C chemokine receptor type 4 (Homo sapiens), P61073 [V112A], sequence (P61073 whole entry V112A): as the sequence (P61073 whole entry E277A) above, with V112A, A277E counted along it
C-X-C chemokine receptor type 4 (Homo sapiens, UniProt P61073, V112A), sequence (P61073 whole entry V112A): as the sequence (P61073 whole entry E277A) above, with V112A, A277E counted along it

CCCN(CCC)CCCCN(C)Cc1ccc(CN(Cc2ncc[nH]2)Cc2nccn2C)cc1.O=C(O)C(O)C(O)C(=O)O
inhibition [1]: inactive
EC50 [2]: 1.1 nM
EC50 [3]: 0.38 nM
EC50 [4]: > 200 nM
EC50 [5]: > 200 nM
EC50 [6]: 1.4 nM
IC50 [7]: 0.6 nM
IC50 [8]: 0.8 nM
Activity [9]: Dose-dependent effect
IC50 [9]: 0.61 nM
IC50 [10]: 0.4 nM
Activity [11]: inactive
inhibition [12]: Dose-dependent effect
inhibition [13]: Dose-dependent effect
inhibition [14]: Dose-dependent effect
AUC(0-t) at 336 h [15]: 325 ng·h/mL
IC50 [16]: 2.8 nM
IC90 [16]: 8.2 nM
IC90 [17]: 7.4 nM
IC50 [18]: 1.5 nM
IC90 [19]: > 10 nM
IC50 [20]: 2.2 nM
IC90 [21]: 5.1 nM
IC50 [22]: 0.5 nM
IC50 [23]: 3.2 nM
IC50 [24]: 1.6 nM
Tmax [25]: 2.3 h
IC90 [26]: 8.1 nM
IC90 [27]: 8.7 nM
